Results reported in ChEMBL document CHEMBL6177998, “Rational Design of Dual Degraders by Incorporating Molecular Glue Structural Features into PROTAC Degraders” (J Med Chem, 2025).

How the values were obtained:
Assay type in all cases: cell-based
[1] = biological target: T1, Protein cereblon/Eukaryotic peptide chain release factor GTP-binding subunit ERF3A (Homo sapiens, UniProt Q96SW2+P15170); assay: Molecular glue activity at CRBN/GSPT1 in human 22Rv1 cells assessed as induction of GSPT1 degradation at 0.01 uM incubated for 24 hrs by Western blot analysis relative to control
T1 sequence (P15170 whole entry, looked up, canonical isoform): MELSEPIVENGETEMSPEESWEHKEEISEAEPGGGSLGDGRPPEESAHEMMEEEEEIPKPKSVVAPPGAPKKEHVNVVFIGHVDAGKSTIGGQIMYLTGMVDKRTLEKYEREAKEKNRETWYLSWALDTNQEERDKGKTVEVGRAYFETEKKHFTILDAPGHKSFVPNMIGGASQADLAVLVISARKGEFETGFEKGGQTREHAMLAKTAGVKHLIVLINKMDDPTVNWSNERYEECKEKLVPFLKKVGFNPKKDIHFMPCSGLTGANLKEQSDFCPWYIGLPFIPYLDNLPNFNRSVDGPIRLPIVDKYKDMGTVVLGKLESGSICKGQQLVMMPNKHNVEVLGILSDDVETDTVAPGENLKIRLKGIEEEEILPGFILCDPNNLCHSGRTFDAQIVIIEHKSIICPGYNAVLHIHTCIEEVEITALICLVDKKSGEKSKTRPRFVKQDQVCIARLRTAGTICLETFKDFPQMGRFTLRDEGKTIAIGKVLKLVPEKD
T1 sequence (Q96SW2 whole entry, looked up, canonical isoform): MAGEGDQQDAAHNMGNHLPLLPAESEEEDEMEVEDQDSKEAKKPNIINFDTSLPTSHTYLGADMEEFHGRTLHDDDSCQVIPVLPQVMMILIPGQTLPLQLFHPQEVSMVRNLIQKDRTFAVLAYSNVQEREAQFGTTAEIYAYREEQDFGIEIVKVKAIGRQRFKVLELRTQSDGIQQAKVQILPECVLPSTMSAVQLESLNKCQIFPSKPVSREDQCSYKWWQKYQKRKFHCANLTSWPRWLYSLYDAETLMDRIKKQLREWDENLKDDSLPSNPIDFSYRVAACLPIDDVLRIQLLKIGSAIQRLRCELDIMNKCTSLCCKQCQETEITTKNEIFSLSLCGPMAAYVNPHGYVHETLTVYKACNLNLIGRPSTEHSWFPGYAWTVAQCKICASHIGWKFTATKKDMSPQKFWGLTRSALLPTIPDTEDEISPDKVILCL

[2] = tested on: Protein cereblon/Androgen receptor (Homo sapiens), P10275+Q96SW2 [UNDEFINED MUTATION]; assay: PROTAC activity at CRBN/Androgen receptor splice variant 7 in human VCaP cells assessed as induction of AR-V7 degradation at 0.01 uM incubated for 24 hrs by Western blot analysis relative to control
Protein cereblon/Androgen receptor (Homo sapiens), P10275+Q96SW2 [UNDEFINED MUTATION], sequence (P10275 whole entry, looked up, change not shown, canonical isoform): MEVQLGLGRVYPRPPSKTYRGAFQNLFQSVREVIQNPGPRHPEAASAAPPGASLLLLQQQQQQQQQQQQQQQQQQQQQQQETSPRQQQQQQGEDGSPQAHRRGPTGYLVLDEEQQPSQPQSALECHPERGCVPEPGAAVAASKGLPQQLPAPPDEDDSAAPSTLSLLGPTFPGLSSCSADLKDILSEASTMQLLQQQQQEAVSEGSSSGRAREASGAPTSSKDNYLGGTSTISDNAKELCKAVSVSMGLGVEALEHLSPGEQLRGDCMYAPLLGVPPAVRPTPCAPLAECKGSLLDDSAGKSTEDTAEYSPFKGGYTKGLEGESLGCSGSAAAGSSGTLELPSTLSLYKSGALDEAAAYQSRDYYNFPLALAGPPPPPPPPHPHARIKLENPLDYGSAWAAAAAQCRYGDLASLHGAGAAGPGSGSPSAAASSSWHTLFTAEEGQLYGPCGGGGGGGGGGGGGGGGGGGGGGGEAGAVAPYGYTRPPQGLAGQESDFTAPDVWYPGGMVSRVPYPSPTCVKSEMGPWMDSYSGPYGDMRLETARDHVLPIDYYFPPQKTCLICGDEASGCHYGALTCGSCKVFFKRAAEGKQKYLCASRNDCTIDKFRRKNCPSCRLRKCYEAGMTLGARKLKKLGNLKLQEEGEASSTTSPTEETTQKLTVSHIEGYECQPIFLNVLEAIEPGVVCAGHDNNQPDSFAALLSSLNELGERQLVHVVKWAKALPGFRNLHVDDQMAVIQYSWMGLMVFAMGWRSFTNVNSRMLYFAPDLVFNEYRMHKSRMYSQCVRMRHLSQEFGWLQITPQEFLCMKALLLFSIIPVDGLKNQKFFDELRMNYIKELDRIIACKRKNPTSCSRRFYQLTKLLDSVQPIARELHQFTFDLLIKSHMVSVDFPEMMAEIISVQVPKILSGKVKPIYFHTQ
Protein cereblon/Androgen receptor (Homo sapiens), P10275+Q96SW2 [UNDEFINED MUTATION], sequence (Q96SW2 whole entry, looked up, change not shown, canonical isoform): as the sequence (Q96SW2 whole entry, looked up, canonical isoform) above

[3] = tested on: Protein cereblon/Androgen receptor (Homo sapiens), P10275+Q96SW2 [UNDEFINED MUTATION]; assay: PROTAC activity at CRBN/Androgen receptor splice variant 7 in human VCaP cells assessed as induction of AR-V7 degradation at 0.1 uM incubated for 24 hrs by Western blot analysis relative to control
[4] = tested on: Protein cereblon/Androgen receptor (Homo sapiens), P10275+Q96SW2 [UNDEFINED MUTATION]; assay: PROTAC activity at CRBN/Androgen receptor splice variant 7 in human 22Rv1 cells assessed as induction of AR-V7 degradation at 0.01 uM incubated for 24 hrs by Western blot analysis relative to control
[5] = biological target: T2, Protein cereblon/Androgen receptor (Homo sapiens, UniProt P10275+Q96SW2); assay: PROTAC activity at CRBN/AR in human 22Rv1 cells assessed as induction of AR degradation at 0.1 uM incubated for 24 hrs by Western blot analysis relative to control
T2 sequence (P10275 whole entry, looked up): as the sequence (P10275 whole entry, looked up, change not shown, canonical isoform) above
T2 sequence (Q96SW2 whole entry, looked up): as the sequence (Q96SW2 whole entry, looked up, canonical isoform) above

[6] = biological target: T2, Protein cereblon/Androgen receptor; assay: PROTAC activity at CRBN/AR in human 22Rv1 cells assessed as induction of AR degradation at 0.01 uM incubated for 24 hrs by Western blot analysis relative to control
[7] = tested on: Protein cereblon/Androgen receptor (Homo sapiens), P10275+Q96SW2 [UNDEFINED MUTATION]; assay: PROTAC activity at CRBN/Androgen receptor splice variant 7 in human 22Rv1 cells assessed as induction of AR-V7 degradation at 0.1 uM incubated for 24 hrs by Western blot analysis relative to control
[8] = biological target: T2, Protein cereblon/Androgen receptor; assay: PROTAC activity at CRBN/AR in human VCaP cells assessed as induction of AR degradation at 0.01 uM incubated for 24 hrs by Western blot analysis relative to control
[9] = biological target: T1, Protein cereblon/Eukaryotic peptide chain release factor GTP-binding subunit ERF3A; assay: Molecular glue activity at CRBN/GSPT1 in human 22Rv1 cells assessed as induction of GSPT1 degradation at 0.1 uM incubated for 24 hrs by Western blot analysis relative to control
[10] = biological target: T2, Protein cereblon/Androgen receptor; assay: PROTAC activity at CRBN/AR in human VCaP cells assessed as induction of AR degradation at 0.1 uM incubated for 24 hrs by Western blot analysis relative to control

SMILES | Activity [1] | Activity [2] | Activity [3] | Activity [4] | Activity [5] | Activity [6] | Activity [7] | Activity [8] | Activity [9] | Activity [10]
CC(C)(c1ccc(OCC2COC2)cc1)c1cc(Cl)c(OCC2CCN(C(=O)CCCCCNc3ccc4c(c3)C(=O)N(C3CCC(=O)NC3=O)C4=O)CC2)c(C#N)c1 (stereo not given) | 96.8% | 34.8% | 27.8% | 64.2% | 67.1% | 78.3% | 71% | 82.5% | 96.5% | 81.2%
CC(C)(c1ccc(OCC2CCOCC2)cc1)c1cc(Cl)c(OCC2CCN(C(=O)CCCCCNc3ccc4c(c3)C(=O)N(C3CCC(=O)NC3=O)C4=O)CC2)c(C#N)c1 (stereo not given) | 93.6% | < 5% | < 5% | 68.5% | 79.3% | 48% | 83.9% | < 5% | 96.1% | 63%
COc1ccc(C(C)(C)c2ccc(OCC3CCN(C(=O)CCCCCNc4ccc5c(c4)C(=O)N(C4CCC(=O)NC4=O)C5=O)CC3)cc2)cc1 (stereo not given) | 88.3% | 23.3% | 54.5% | 6.7% | 79.5% | 38.5% | 57.4% | 20.7% | 94% | 83.9%
CC(C)(c1ccc(OCc2ccncn2)cc1)c1cc(Cl)c(OCC2CCN(C(=O)CCCCCNc3ccc4c(c3)C(=O)N(C3CCC(=O)NC3=O)C4=O)CC2)c(C#N)c1 (stereo not given) | 97.5% | 72.3% | 84.5% | 75.5% | 80.5% | 75.1% | 77.7% | 61.3% | 97.2% | 58.8%
CC(C)(c1ccc(OCC2CCN(S(C)(=O)=O)CC2)cc1)c1cc(Cl)c(OCC2CCN(C(=O)CCCCCNc3ccc4c(c3)C(=O)N(C3CCC(=O)NC3=O)C4=O)CC2)c(C#N)c1 (stereo not given) | 95.6% | < 5% | 40.6% | 70.6% | 78% | 71.5% | 71.9% | < 5% | 96.7% | 34.5%
CC(C)(c1ccc(OCC2CCOC2)cc1)c1cc(Cl)c(OCC2CCN(C(=O)CCCCCNc3ccc4c(c3)C(=O)N(C3CCC(=O)NC3=O)C4=O)CC2)c(C#N)c1 (stereo not given) | 96.6% | 43.6% | 40.1% | 76.8% | 73.5% | 72.5% | 89.1% | 83.9% | 96.1% | 85.1%
CC(C)(c1ccc(OCCCCl)cc1)c1ccc(OCC2CCN(C(=O)CCCCCNc3ccc4c(c3)C(=O)N(C3CCC(=O)NC3=O)C4=O)CC2)cc1 (stereo not given) | 37.3% | < 5% | 28.6% | < 5% | 30% | 13.9% | 5.1% | < 5% | 92.8% | < 5%
CC1(COc2ccc(C(C)(C)c3cc(Cl)c(OCC4CCN(C(=O)CCCCCNc5ccc6c(c5)C(=O)N(C5CCC(=O)NC5=O)C6=O)CC4)c(C#N)c3)cc2)COC1 (stereo not given) | 95.3% | 49.5% | 29.8% | 68.6% | 80.8% | 66.4% | 75% | 78.7% | 96.1% | 78.1%

Results, then the compound that gave them:

Activity [1] | Activity [2] | Activity [3] | Activity [4] | Activity [5] | Activity [6] | Activity [7] | Activity [8] | Activity [9] | Activity [10] | SMILES
< 5% | < 5% | < 5% | 14.5% | < 5% | 23.9% | < 5% | 15.7% | < 5% | < 5% | COc1ccc(C(C)(C)c2cc(Cl)c(OCC3CCN(C(=O)CCCCCNc4ccc(C(=O)N[C@H]5CCC(=O)NC5=O)c(F)c4)CC3)c(C#N)c2)cc1
72.9% | < 5% | 69.1% | 11.5% | 72.9% | 39.7% | 57.3% | < 5% | 93.3% | 69.8% | COc1ccc(C(C)(C)c2cc(Cl)c(OCC3CCN(C(=O)CCCCCNc4ccc5c(c4)C(=O)N(C4CCC(=O)NC4=O)C5=O)CC3)c(Cl)c2)cc1 (stereo not given)
97.6% | 84.2% | 94% | 75.2% | 85.7% | 80.3% | 74.7% | 72.4% | 97.5% | 74.7% | CC(C)(c1ccc(OCc2cncnc2)cc1)c1cc(Cl)c(OCC2CCN(C(=O)CCCCCNc3ccc4c(c3)C(=O)N(C3CCC(=O)NC3=O)C4=O)CC2)c(C#N)c1 (stereo not given)
74.6% | < 5% | 10% | < 5% | < 5% | < 5% | 25.2% | 25.1% | 88.6% | 17.3% | COc1ccc(C(C)(C)c2cc(Cl)c(OCC3CCN(C(=O)CCCCCNc4cc5c(cc4F)C(=O)N(C4CCC(=O)NC4=O)C5=O)CC3)c(C#N)c2)cc1 (stereo not given)
81.5% | < 5% | 21.1% | < 5% | 50.1% | < 5% | 58.5% | < 5% | 97.3% | 21.7% | CC(C)(c1ccc(OCc2ccccc2)cc1)c1cc(Cl)c(OCC2CCN(C(=O)CCCCCNc3ccc4c(c3)C(=O)N(C3CCC(=O)NC3=O)C4=O)CC2)c(C#N)c1 (stereo not given)
93.2% | < 5% | 48% | 73.9% | 78.3% | 51.3% | 81.2% | 53.6% | 96.8% | 75.6% | CC(C)(c1ccc(OCC2CN(S(C)(=O)=O)C2)cc1)c1cc(Cl)c(OCC2CCN(C(=O)CCCCCNc3ccc4c(c3)C(=O)N(C3CCC(=O)NC3=O)C4=O)CC2)c(C#N)c1 (stereo not given)
